Data from patent US12497365B2, “4-pyridinyl formamide compound or derivative thereof, preparation method therefor, herbicidal composition and use thereof” (Qingdao Kingagroot Chemical Compound Co., Ltd., priority 2019, dated 2025).

Columns and labels:
Assay in all cases: Weeding effect in post-emergence stage
Format in all cases: in vivo
Details in all cases: active ingredient 2000 g/ha, 3 weeks after application, fresh weight control rate
[1] = test system: Descurainia sophia
Method in brief: (§1)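 Post-emergence spray, 2-3 leaf stage; acetone/Tween 80 formulation + methyl oleate EC synergist (1.5 liter/ha); 125-2000 g/ha via spray tower. Greenhouse, 3 wk. Read-out: fresh weight growth control rate, graded by activity level.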

[2] = test system: Amaranthus retroflexus L.
Method in brief: as §1

[3] = test system: Abutilon theophrasti
Method in brief: as §1

[4] = test system: Chenopodium album
Method in brief: as §1

| SMILES | Weeding effect, activity level (growth control rate), Descurainia sophia [1] | Weeding effect, activity level (growth control rate), Amaranthus retroflexus L. [2] | Weeding effect, activity level (growth control rate), Abutilon theophrasti [3] | Weeding effect, activity level (growth control rate), Chenopodium album [4] |
| --- | --- | --- | --- | --- |
| Cn1nnnc1NC(=O)c1ccnc(-c2ccc(F)cc2)c1S(C)(=O)=O [Compound 1-207] | 5 (Level 5: growth control rate is above 85%) | 5 (Level 5: growth control rate is above 85%) | 5 (Level 5: growth control rate is above 85%) | 5 (Level 5: growth control rate is above 85%) |
| Cn1nnnc1NC(=O)c1ccnc(-c2ccc3c(c2)oc2ccccc23)c1Cl [Compound 1-117] | 5 (Level 5: growth control rate is above 85%) | 5 (Level 5: growth control rate is above 85%) | 5 (Level 5: growth control rate is above 85%) | 5 (Level 5: growth control rate is above 85%) |
| Cn1nnnc1NC(=O)c1ccnc(-c2ccc(F)cc2)c1C(F)(F)F [Compound 1-198] | 5 (Level 5: growth control rate is above 85%) | 5 (Level 5: growth control rate is above 85%) | 5 (Level 5: growth control rate is above 85%) | 5 (Level 5: growth control rate is above 85%) |
| CC(=O)Nc1ccc(-c2nccc(C(=O)Nc3nnnn3C)c2Cl)cc1 [Compound 1-47] | 5 (Level 5: growth control rate is above 85%) | 5 (Level 5: growth control rate is above 85%) | 5 (Level 5: growth control rate is above 85%) | 5 (Level 5: growth control rate is above 85%) |
| CCSc1c(C(=O)Nc2nnnn2C)ccnc1-c1ccc(F)cc1 [Compound 1-204] | 5 (Level 5: growth control rate is above 85%) | 5 (Level 5: growth control rate is above 85%) | 5 (Level 5: growth control rate is above 85%) | 5 (Level 5: growth control rate is above 85%) |
| Cc1nc(F)ccc1-c1nccc(C(=O)Nc2nnnn2C)c1Cl [Compound 1-137] | 5 (Level 5: growth control rate is above 85%) | 5 (Level 5: growth control rate is above 85%) | 5 (Level 5: growth control rate is above 85%) | 5 (Level 5: growth control rate is above 85%) |
| COc1cc(F)cc(-c2nccc(C(=O)Nc3nnnn3C)c2Cl)c1 [Compound 1-71] | 5 (Level 5: growth control rate is above 85%) | 5 (Level 5: growth control rate is above 85%) | 5 (Level 5: growth control rate is above 85%) | 5 (Level 5: growth control rate is above 85%) |
| Cn1nnnc1NC(=O)c1ccnc(-c2ccc(Cl)nc2)c1Cl [Compound 1-129] | 5 (Level 5: growth control rate is above 85%) | 5 (Level 5: growth control rate is above 85%) | 5 (Level 5: growth control rate is above 85%) | 5 (Level 5: growth control rate is above 85%) |
| Cn1nnnc1NC(=O)c1ccnc(Nc2ccccc2)c1Cl [Compound 1-2075] | 5 (Level 5: growth control rate is above 85%) | 5 (Level 5: growth control rate is above 85%) | 5 (Level 5: growth control rate is above 85%) | 5 (Level 5: growth control rate is above 85%) |
| Cn1nnnc1NC(=O)c1ccnc(-c2ccc(Cl)cc2F)c1Cl [Compound 1-95] | 5 (Level 5: growth control rate is above 85%) | 5 (Level 5: growth control rate is above 85%) | 5 (Level 5: growth control rate is above 85%) | 5 (Level 5: growth control rate is above 85%) |
| Cn1nnnc1NC(=O)c1ccnc(-c2cc(F)cc(Cl)c2)c1Cl [Compound 1-90] | 5 (Level 5: growth control rate is above 85%) | 5 (Level 5: growth control rate is above 85%) | 5 (Level 5: growth control rate is above 85%) | 5 (Level 5: growth control rate is above 85%) |
| Cc1ccc(-c2nccc(C(=O)Nc3nnnn3C)c2Cl)s1 [Compound 1-187] | 5 (Level 5: growth control rate is above 85%) | 5 (Level 5: growth control rate is above 85%) | 5 (Level 5: growth control rate is above 85%) | 5 (Level 5: growth control rate is above 85%) |
| Cn1nnnc1NC(=O)c1ccnc(-c2ccc(C(=O)OC(C)(C)C)cc2)c1Cl [Compound 1-41] | 5 (Level 5: growth control rate is above 85%) | 5 (Level 5: growth control rate is above 85%) | 5 (Level 5: growth control rate is above 85%) | 5 (Level 5: growth control rate is above 85%) |
| Cn1nnnc1NC(=O)c1ccnc(-c2cc(Cl)cc(Cl)c2)c1Cl [Compound 1-89] | 5 (Level 5: growth control rate is above 85%) | 5 (Level 5: growth control rate is above 85%) | 5 (Level 5: growth control rate is above 85%) | 5 (Level 5: growth control rate is above 85%) |
| Cn1nnnc1NC(=O)c1ccnc(-c2cccc(S(C)(=O)=O)c2)c1Cl [Compound 1-44] | 5 (Level 5: growth control rate is above 85%) | 5 (Level 5: growth control rate is above 85%) | 5 (Level 5: growth control rate is above 85%) | 5 (Level 5: growth control rate is above 85%) |
| COc1c(C(=O)Nc2nnnn2C)ccnc1-c1ccc(F)cc1 [Compound 1-200] | 5 (Level 5: growth control rate is above 85%) | 5 (Level 5: growth control rate is above 85%) | 5 (Level 5: growth control rate is above 85%) | 5 (Level 5: growth control rate is above 85%) |
| Cn1nnnc1NC(=O)c1ccnc(-c2ccnc(C#N)n2)c1Cl [Compound 1-165] | 5 (Level 5: growth control rate is above 85%) | 5 (Level 5: growth control rate is above 85%) | 5 (Level 5: growth control rate is above 85%) | 5 (Level 5: growth control rate is above 85%) |
| Cn1nnnc1NC(=O)c1ccnc(-c2ccc(Cl)cc2)c1Cl [Compound 1-20] | 5 (Level 5: growth control rate is above 85%) | 5 (Level 5: growth control rate is above 85%) | 5 (Level 5: growth control rate is above 85%) | 5 (Level 5: growth control rate is above 85%) |
| Cn1cc(-c2nccc(C(=O)Nc3nnnn3C)c2Cl)cn1 [Compound 1-168] | 5 (Level 5: growth control rate is above 85%) | 5 (Level 5: growth control rate is above 85%) | 5 (Level 5: growth control rate is above 85%) | 5 (Level 5: growth control rate is above 85%) |
| Cn1nnnc1NC(=O)c1ccnc(-c2cc3ccccc3o2)c1Cl [Compound 1-2010] | 5 (Level 5: growth control rate is above 85%) | 5 (Level 5: growth control rate is above 85%) | 5 (Level 5: growth control rate is above 85%) | 5 (Level 5: growth control rate is above 85%) |
| COc1ccc(Cl)c(-c2nccc(C(=O)Nc3nnnn3C)c2Cl)c1 [Compound 1-103] | 5 (Level 5: growth control rate is above 85%) | 5 (Level 5: growth control rate is above 85%) | 5 (Level 5: growth control rate is above 85%) | 5 (Level 5: growth control rate is above 85%) |
| Cn1nnnc1NC(=O)c1ccnc(-c2ccc(F)c(C#N)c2)c1Cl [Compound 1-84] | 5 (Level 5: growth control rate is above 85%) | 5 (Level 5: growth control rate is above 85%) | 5 (Level 5: growth control rate is above 85%) | 5 (Level 5: growth control rate is above 85%) |
